Source: patent publication US12286437B2, “Cardiac sarcomere inhibitors” (Cytokinetics, Inc., priority 2021, dated 2025)

Assays:
[1] = test system: bovine cardiac myofibrils; test: Myofibril assay (ATPase activity of skinned bovine cardiac myofibrils, PK/LDH-coupled); format: biochemical; conditions: inhibition of steady-state ATPase of bovine cardiac myofibrils; CaCl2 for 50% or 75% activation
Method: To evaluate the effect of compounds on the ATPase activity of full-length cardiac myosin in the context of the native sarcomere, skinned myofibril assays were performed. Bovine cardiac myofibrils were obtained by homogenizing bovine cardiac left ventricular tissue in the presence of a detergent such as triton X-100. Such treatment removes membranes and a majority of the soluble cytoplasmic proteins but leaves intact the cardiac sarcomeric acto-myosin apparatus. Myofibril preparations retain the ability to hydrolyze ATP in a Ca^2+ regulated manner. ATPase activities of such myofibril preparations in the presence and absence of compounds were assayed at Ca^2+ concentrations activating to a defined fraction of the maximal rate (i.e., […], 75%). Small molecule agents were assessed for their ability to inhibit the steady-state ATPase activity of bovine cardiac myofibrils using pyruvate kinase and lactate dehydrogenase (PK/LDH)-coupled enzyme system. This assay regenerates myosin-produced ADP into ATP by oxidizing NADH, producing an absorbance change at 340 nm. Prior to testing small molecule agents, the bovine cardiac myofibrils were assessed for their calcium responsiveness and the calcium concentration that achieves either a 50% (pCa50) or 75% (pCa75) activation of the myofibril system was chosen as the final condition for assessing the inhibitory activity of the small molecule agents. All enzymatic activity was measured in a buffered solution containing 12 mM PIPES (piperazine-N,N′-bis(2-ethanesulfonic acid), 2 mM magnesium chloride at pH 6.8 (PM 12 buffer). Final assay conditions were 1 mg/mL of bovine cardiac myofibrils, 4 U/mL pyruvate kinase, 6 U/mL lactate dehydrogenase, 50 μM ATP, 0.1 mg/mL BSA (bovine serum albumin), 10 ppm antifoam, 1 mM DTT, 0.5 mM NADH, 1.5 mM PEP, 0.6 mM EGTA, and an amount of CaCl2 sufficient to achieve either 50% or 75% activation of the myofibril ATPase activity. Results for compounds tested are provided in Table A. Compounds tested were prepared in accordance with the synthetic procedures described herein.

[2] = Dog single dose pharmacokinetics; format: in vivo, beagle dogs; conditions: male, beagle, plasma, IV, read-out: t½ (converted)
Method: Non-naïve male beagle dogs (8 months-3 years of age, body weight 8-13 kg) were used in this study. All animals for IV administration had free access to food and water; all animals for PO were fasted overnight prior to dosing and were fed approximately 6 hours after dosing. For the animals in PO group, pentagastrin (6.0 μg/kg, i.m.) was administrated 20 minutes before dosing PO formulation and 1.5 hours after the first pentagastrin dosing. The dosing volume was 0.024 mL/kg, the concentration was 250 μg/mL in DMSO/1 N NaOH/PBS. 10 mL of 0.001 N HCl was used to wash the gavage catheter for each animal. The IV dose solution was prepared in 10% DMA/50% PG/40% HPβCD solution (40% w/v aqueous HPβCD) at a concentration of 1.0 mg/mL. The oral dose suspension was prepared by suspending the compound in 0.5% HPMC/0.1% Tween 80 in distilled water at a concentration of 0.2 mg/mL. Concentrations of IV and PO doses were measured at the end of the study. PK parameters were calculated using the nominal dose values if the measured values were within 20% of the nominal values. Blood samples were collected by venipuncture of peripheral veins except the dosing vein at pre-dose, 5 15, 30 min, 1, 2, 4, 6, 8, 24 and 48 h post-dose. Blood samples were centrifuged and resultant plasma was frozen for bioanalysis. Plasma samples were stored at −80° C. before analysis. Plasma samples were analyzed for compound concentrations using the LC/MS/MS method. Briefly, a 50 μL aliquot of each plasma sample was mixed with 100 μL of acetonitrile that contained an internal standard. The mixture was vortexed and centrifuged. Ten (10) μL of the resulting solution was injected onto a reverse-phase C18 column and the resultant peaks detected on a LC/MS/MS equipped with a turbo ionspray ionization source. Sample concentrations below the limit of quantification (BLQ) were treated as zero for PK calculations. PK parameters were estimated from individual animals using noncompartmental analysis of the concentration-time data (Phoenix WinNonLin software, version 64; Pharsight, Mountain View, CA). The elimination rate constant (k) was calculated as the absolute value of the slope of the linear regression of logarithm (log) of the concentration versus time for the last three data points of the concentration-time profiles. Apparent elimination half-life (t1/2) values were calculated as ln(2)/k. Area under the concentration-time curve (AUC) values were estimated using linear trapezoidal method. AUCt values were calculated from the dosing time to the last measurable concentration. AUC∞ values were calculated as the sum of the corresponding AUCt and the ratio of the last detectable concentration divided by k. Plasma clearance (CL) was calculated from Dose/AUC∞. Mean resident time extrapolated to infinity (MRT∞) was estimated by moment analysis. Vss was calculated from MRT∞×CL. Maximum concentration (Cmax) and time to reach Cmax (tmax) were recorded as observed. As this was a cross-over study, bioavailability was calculated dAUC∞,po/dAUC∞,iv×100% where dAUC was the dose normalized AUC value from the same animal given IV and PO dose. Data for compounds tested are provided in Table D. Compounds tested were prepared in accordance with the synthetic procedures described herein.

[3] = Projected single-dose CL and Vss values in humans (allometric scaling of mouse, rat, dog, monkey IV PK); conditions: human, projected by allometric scaling from single-dose IV PK
Method: Allometric scaling for the prediction of human Clearance and Volume of Distribution was based on interspecies simple allometric scaling of mouse, rat, dog, and cynomolgus monkey intravenous pharmacokinetic parameters (Boxenbaum, J Pharmacokinet Biopharm 10:201-27, 1982). Prediction of human CL was performed by extrapolating pre-clinical species' plasma intravenous clearance. The ‘rule of exponents’ (Mahmood & Balian, Life Sci 59:579-85, 1996) was examined in this prediction, where it has been proposed that, when the exponent of simple allometry lies between […] and 0.99, a correction factor based on Maximum Life Span (MLP) of this species can be applied and, when the exponent of simple allometry is greater than 1.0, a correction factor based on Brain Weight (BrW) can be applied, or a protein binding correction can be applied when available. In a similar manner, simple allometric scaling was employed to predict human Volume of Distribution. This method has been used successfully for varied drugs (Ward & Smith, Drug Metab Dispos 32:612-19, 2004; McGinnity et al., Curr Drug Metab 8:463-79, 2007).

CYP3A4 = molecular target: T1, CYP3A4 (Homo sapiens, UniProt P08684); test: Time-dependent inhibition of CYP3A4 in human liver microsomes (testosterone and midazolam probes); format: in vitro ADME; conditions: for (% Activity NADPH T0)/(% Activity NADPH T30): fold change
T1 construct: Pooled human microsomes and selective CYP probe substrates were used; from tissue; host or cells: pooled human liver microsomes
Method: An assessment of the time-dependent Inhibitory Potential of the test compounds against Principal Human Cytochrome P450 Isozymes using Human Liver Microsomes was also carried out using standard methods (Grimm et al, Drug Metab. Dispos., July; 37(7):1355-70. doi: 10.1124/dmd.109.026716, 2009). Pooled human microsomes and selective CYP probe substrates were used for in vitro assessment of test compounds at 25 and 50 μM as time-dependent inhibitors of […] human hepatic cytochrome P450 isozymes (CYP1A2, 2B6, 2C9, 2C19, 2D6, and 3A4). LC-MS/MS was used to quantify metabolite formation. The inhibition of each P450 enzyme in human liver microsomes was measured as the percentage decrease in the activity of marker metabolite formation as measured by LC-MS/MS compared to non-inhibited controls (=100% activity) at time zero and after 30 minutes incubation. The occurrence of any time dependent inhibition was then expressed as the fold change in enzyme activity at time zero relative to the activity after 30 minutes incubation.

T1 sequence (P08684 whole entry): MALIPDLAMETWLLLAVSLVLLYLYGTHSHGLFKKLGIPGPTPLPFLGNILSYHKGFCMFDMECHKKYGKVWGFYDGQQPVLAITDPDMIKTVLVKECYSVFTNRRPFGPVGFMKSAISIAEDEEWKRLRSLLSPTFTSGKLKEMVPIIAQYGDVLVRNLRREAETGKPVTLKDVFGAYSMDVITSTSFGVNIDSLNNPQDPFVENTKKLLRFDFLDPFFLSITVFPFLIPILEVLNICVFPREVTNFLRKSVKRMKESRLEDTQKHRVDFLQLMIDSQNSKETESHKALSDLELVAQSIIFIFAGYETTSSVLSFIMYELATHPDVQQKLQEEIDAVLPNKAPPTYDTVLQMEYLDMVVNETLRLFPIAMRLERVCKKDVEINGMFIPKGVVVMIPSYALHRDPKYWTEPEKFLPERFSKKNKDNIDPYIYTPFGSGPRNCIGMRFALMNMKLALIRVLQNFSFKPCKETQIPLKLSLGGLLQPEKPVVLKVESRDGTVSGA

Row | Compound | CDMF IC15 [1] [µM] | half-life [2] [h] | Projected CL [3] [mL/min/kg] | Projected t½ [3] [h] | Projected Vss [3] [L/kg] | (% Activity NADPH T0)/(% Activity NADPH T30) (CYP3A4; CYP3A4-M (midazolam probe substrate), 25 μM) | (% Activity NADPH T0)/(% Activity NADPH T30) (CYP3A4; CYP3A4-M (midazolam probe substrate), 50 μM) | (% Activity NADPH T0)/(% Activity NADPH T30) (CYP3A4; CYP3A4-T (testosterone probe substrate), 25 μM) | (% Activity NADPH T0)/(% Activity NADPH T30) (CYP3A4; CYP3A4-T (testosterone probe substrate), 50 μM) | change in fold activity of 3A4 (time dependent inhibition) (CYP3A4; both midazolam and testosterone probes, 25 and 50 μM) [fold]
1 | O=CN1CC2(C1)C(=O)N(c1ccc(F)cc1F)CC(=O)N2Cc1ccc(Cl)cc1 [Comparator A, 5-(4-chlorobenzyl)-8-(2,4-difluorophenyl)-6,9-dioxo-2,5,8-triazaspiro[3.5]nonane-2-carbaldehyde, reference compound] | 1.8 | 39.2 | 1.44 | 38.7 | – | – | – | – | – | –
2 | O=C1[C@H](C2COC2)N(Cc2ccc(C(F)(F)F)cc2)C(=O)CN1c1ncc(Cl)cc1F [Comparator C, (S)-1-(5-chloro-3-fluoropyridin-2-yl)-3-(oxetan-3-yl)-4-(4-(trifluoromethyl)benzyl)piperazine-2,5-dione, reference compound] | 1.1 | 14.7 | 3.9 | 41 | 13.9 | 1.6 | 1.7 | 1.8 | 1.8 | > 1.5
3 | O=CN1CC2(C1)C(=O)N([C@H]1CC[C@H](C(F)F)CC1)CC(=O)N2Cc1ccc(C(F)(F)F)cc1 [Comparator E, 8-((1r,4r)-4-(difluoromethyl)cyclohexyl)-6,9-dioxo-5-(4-(trifluoromethyl)benzyl)-2,5,8-triazaspiro[3.5]nonane-2-carbaldehyde] | 1.3 | 33.1 | 1.2 | 51.7 | 5.5 | – | – | – | – | –
4 | CC(=O)N1CC2(C1)C(=O)N(c1ccc(C#N)cc1F)CC(=O)N2Cc1ccc(C(F)(F)F)cc1 [Comparator D, 4-(2-acetyl-6,9-dioxo-5-(4-(trifluoromethyl)benzyl)-2,5,8-triazaspiro[3.5]nonan-8-yl)-3-fluorobenzonitrile] | 1.1 | 23.7 | 0.96 | 62 | 5.16 | – | – | – | – | –
